# Measurements from patent publication US20090280069A1, “PROGUANIL TO TREAT SKIN/MUCOSAL DISEASES” (Tolmar, Inc., priority 2008, published 2009).
# System: Gardnerella vaginalis ATCC 14018
# Test: time kill assay, G. vaginalis
# Type: cell-based
# Procedure: A time kill assay was used to test the effects of varying concentrations of proguanil on a culture of Gardnerella vaginalis ATCC 14018. An inoculum of G. vaginalis was prepared and inoculated in vials containing Brain Heart Infusion/Hemoglobin broth containing proguanil concentrations of 160, 80, 16, 8, 1.6 μg/ml. A growth control using phosphate buffered saline A (PBSA) plus a Brain Heart Infusion/Hemoglobin broth was used in place of the drug because it has no antimicrobial effect. DGME was the solvent used to dissolve the proguanil, accordingly, 10% DGME in broth was used as the solvent control. These inoculated broth solutions were then allowed to incubate for a period of 72 hours. Samples were taken at 0, 4, 24, 48 and 72 hours and spiral plated so the CFU/ml could be calculated.
structure (smiles),measurement,setting,value
"CC(C)NC(=N)NC(=N)Nc1ccc(Cl)cc1 [Proguanil, N-(4-Chlorophenyl)-N′-(1-methylethyl)imidodicarbonimidic diamide]",effect on the bacteria,"160 μg/ml and 80 μg/ml, 4 hours through 72 hours",killing effect
same,inhibition of growth,"16, 8, and 1.6 μg/ml",no or little inhibition of growth
same,CFU/ml,"160 and 80 μg/ml, T=24, 48 and 72 hours",0 CFU/ml
same,Relative Sensitivity (Compared to Other Strains Tested),Gardnerella vaginalis ATCC 14018,Very Sensitive
same,Approximate Inhibitory Level,"Gardnerella vaginalis ATCC 14018, level at which partial or total inhibition of growth is observed",80 µg/mL
